Results published in paper PMC6707612, “Cyclic-di-GMP binds to histidine kinase RavS to control RavS-RavR phosphotransfer and regulates the bacterial lifestyle transition between virulence and swimming” (PLoS Pathogens, 2019).

Key:
[1] = molecular target: T1, RavS^ΔTrM (Xanthomonas campestris pv. campestris, UniProt Q8P9A6); assay: microscale thermophoresis (MST) binding; conditions: 20 nM fluorescein-labelled nucleotide, read-out: dissociation constant (Kd)
T1 sequence (Q8P9A6 47-697): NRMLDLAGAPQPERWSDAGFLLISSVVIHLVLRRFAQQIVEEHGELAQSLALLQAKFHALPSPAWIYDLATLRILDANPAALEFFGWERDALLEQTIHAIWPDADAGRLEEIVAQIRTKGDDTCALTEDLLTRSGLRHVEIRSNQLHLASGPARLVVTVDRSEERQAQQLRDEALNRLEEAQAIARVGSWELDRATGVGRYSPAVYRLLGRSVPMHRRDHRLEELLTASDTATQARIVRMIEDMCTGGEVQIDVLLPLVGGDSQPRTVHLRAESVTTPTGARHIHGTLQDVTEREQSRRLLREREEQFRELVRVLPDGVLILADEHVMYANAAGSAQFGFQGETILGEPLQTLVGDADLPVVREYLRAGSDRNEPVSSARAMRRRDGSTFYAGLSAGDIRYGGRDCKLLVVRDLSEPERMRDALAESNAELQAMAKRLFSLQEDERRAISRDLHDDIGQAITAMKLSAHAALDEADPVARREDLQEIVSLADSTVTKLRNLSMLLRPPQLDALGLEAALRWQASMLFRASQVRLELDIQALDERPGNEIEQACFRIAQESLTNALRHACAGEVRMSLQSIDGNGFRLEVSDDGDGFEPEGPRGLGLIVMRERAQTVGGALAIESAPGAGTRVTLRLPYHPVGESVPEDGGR
Method: (a) c-di-GMP enhances RavS-RavR phosphotransfer in vitro. A total of 5 μM RavS^ΔN was autophosphorylated for 15 min by the addition of 10 μCi [γ-^32P]ATP. A total of 15 μM RavR^ΔEAL or RavR^ΔEAL(D496A) was added and incubated for 30 min at 25°C. A total of 100 μM c-di-GMP was added if necessary. The reactions were terminated with 5× SDS loading buffer before autoradiography. The experiment was repeated three times. (b) Time course analyses of the impact of c-di-GMP on the velocity of RavS-RavR phosphotransfer. The autophosphorylation and phosphotransfer reactions were set as mentioned in (a). Various concentrations of c-di-GMP were added to the reactions and isotopic signals (band intensities) of RavS~P were measured after autoradiography. (c–d) c-di-GMP triggered an increase in RavS-RavR phosphotransfer in a dose-dependent manner. (c) Various concentrations of c-di-GMP (0, 5, 10, 15, 30, 50, 75 and 100 μM) were added to the RavS-RavR phosphotransfer reactions. (d) The phosphorylated level of RavS^ΔN~P was quantified by ImageJ and the EC50 value was estimated by Origin 8.5 software. In (b) and (d), the intensity of each data point is the average from three experimental repeats. (e) c-di-GMP triggered increase in RavS-RavR phosphotransfer is highly specific. […] The interaction between RavS^ΔTrM and various nucleotides, including fl-c-di-GMP, fl-cGMP and fl-c-di-AMP, were measured by microscale thermophoresis (MST). A total of 20 nM fluorescein-labelled nucleotides and increasing concentrations of proteins were incubated and measured by MST. The dissociation constant (Kd) was quantified to estimate the binding affinity. […]
The interaction between c-di-GMP nucleotides and various proteins was measured by using MST with a fluorescein-labelled c-di-GMP (2′-Fluo-AHC-c-di-GMP, abbreviated as fl-c-di-GMP; 2′-Fluo-AHC-c-di-AMP, fl-c-di-AMP; 2′-Fluo-AHC-cGMP, fl-cGMP; Biolog, Germany). These chemicals contain carboxyfluorescein that has excitation and emission wavelengths of 497 nm and 520 nm, respectively, which can be detected directly by a MST instrument. […]

[2] = test system: DHp-CA^S636A, DHp-CA^D638A and DHp-CA^L652A; assay: microscale thermophoresis (MST) binding, Ala-substituted DHp-CA proteins; design: species or system Xanthomonas campestris pv. campestris; conditions: compared with positive control DHp-CA protein; fl-c-di-GMP used in the MST assay
Method: (§1) Fig 6 Arg^656 in the CA domain of RavS is a key residue for c-di-GMP binding. (a, b) c-di-GMP binds to the DHp-CA domain of RavS. PAS-A, PAS-B and DHp-CA in (a), and DHp and CA domains of RavS in (b), were purified and the interaction with c-di-GMP was measured by MST. Each assay was repeated three times. Standard deviations are shown. (c) Molecular docking model of the interaction between c-di-GMP and DHp-CA of RavS. c-di-GMP is shown as a ball-and-stick model and DHp-CA is shown in ribbon representation. (d) Schematic view of the predicted docking site between c-di-GMP and DHp-CA. Potential hydrogen bonds are indicated as blue dashed lines. Autodock software was used to predict the interaction. […] Ten recombinant proteins of the DHp-CA region, each containing a substitution of a putative essential residue involved in c-di-GMP binding, were used in the MST assay to quantify the Kd value of RavS–c-di-GMP binding. fl-c-di-GMP was used in the MST assay. […] The reactions were terminated with 5× SDS loading buffer and the products were separated by 12% SDS-PAGE, exposed to a phosphor screen and analysed by Typhoon FLA7000. […]
(§2) The interaction between c-di-GMP nucleotides and various proteins was measured by using MST with a fluorescein-labelled c-di-GMP (2′-Fluo-AHC-c-di-GMP, abbreviated as fl-c-di-GMP; 2′-Fluo-AHC-c-di-AMP, fl-c-di-AMP; 2′-Fluo-AHC-cGMP, fl-cGMP; Biolog, Germany). […]

[3] = test system: DHpCA^D637A, DHp-CA^G639A, DHp-CA^D640A, DHp-CA^I653A, DHp-CA^E657A and DHp-CA^L666A; assay: as above; design: species or system Xanthomonas campestris pv. campestris; conditions: compared with DHp-CA protein; fl-c-di-GMP used in the MST assay
Method: as §1, §2

Row | SMILES | Kd [1] | fold increases in Kd values [2] | change in c-di-GMP binding affinity [3]
1 | Nc1nc2c(ncn2[C@@H]2O[C@@H]3COP(=O)(O)O[C@H]4[C@@H](OC(=O)NCCCCCCNC(=O)c5ccc6c(c5)C(=O)OC65c6ccc(O)cc6Oc6cc(O)ccc65)[C@H](n5cnc6c(=O)[nH]c(N)nc65)O[C@@H]4COP(=O)(O)O[C@H]3[C@H]2O)c(=O)[nH]1 [fl-c-di-GMP, 2′-Fluo-AHC-c-di-GMP] | 6.06 ± 0.92 µM |  | 
2 | Nc1nc2c(ncn2[C@@H]2O[C@@H]3COP(=O)(O)O[C@H]4[C@@H](O)[C@H](n5cnc6c(=O)[nH]c(N)nc65)O[C@@H]4COP(=O)(O)O[C@H]3[C@H]2O)c(=O)[nH]1 [c-di-GMP, Cyclic di-GMP] |  | 1–2 fold | no significant change
